Source: US5210193A, “Piperazine derivatives” (American Cyanamid Company, priority 1990, dated 1993)
≈ marks a conversion by molar mass, not a printed value. Where “and” joins values, the source holds several entries; their conditions need not be identical. Equal values may be shown once. Read-outs that look alike come from different tables or passages of the source.

What was measured:
Experiment in all cases: in vitro antibacterial MIC, agar plate dilution
Type in all cases: cell-based
[1] = system: Escherichia coli ATCC 25922; settings: 35° C.
Procedure, shortened: (§1)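 Agar plate dilution on Mueller-Hinton agar, inoculum approximately 10^4 CFU per organism applied with a Steers replicator. MIC (mcg/ml) is the lowest compound concentration inhibiting visible growth after 18 hours at 35° C.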

[2] = system: Streptococcus faecalis UCI 85-30; settings: 35° C.
Procedure, shortened: as §1

[3] = system: Enterobacter cloacae K 84-10; settings: 35° C.
Procedure, shortened: as §1

[4] = system: Citrobacter div. K 82-24; settings: 35° C.
Procedure, shortened: as §1

[5] = system: Enterobacter cloacae MOR 84-30; settings: 35° C.
Procedure, shortened: as §1

[6] = system: Streptococcus faecalis CMC 83-120; settings: 35° C.
Procedure, shortened: as §1

[7] = system: Staphylococcus aureus ATTC 29213; settings: Staphylococcus aureus, ATTC29213, 18 h, 35° C., read-out: MIC
Procedure, shortened: as §1

[8] = system: Morganella morganii MOR 84-45; settings: 35° C.
Procedure, shortened: as §1

[9] = system: Escherichia coli MOR 84-20; settings: 35° C.
Procedure, shortened: as §1

[10] = system: Klebsiella pneumoniae MOR 84-24; settings: 35° C.
Procedure, shortened: as §1

[11] = system: Streptococcus faecalis VGH 84-69; settings: 35° C.
Procedure, shortened: as §1

[12] = system: Morganella morganii VHG 84-12; settings: Morganella morganii VHG 84-12 (VGH 84-12 for Example 131), 35° C.
Procedure, shortened: as §1

[13] = system: Staphylococcus aureus VGH 84-47; settings: 35° C.
Procedure, shortened: as §1

[14] = system: Proteus rettgeri IO 83-21; settings: 35° C.
Procedure, shortened: as §1

[15] = system: Enterobacter cloacae VGH 84-39; settings: 35° C.
Procedure, shortened: as §1

[16] = system: Providencia stuarti CMC 83-3; settings: 35° C.
Procedure, shortened: as §1

[17] = system: Staphylococcus aureus CMC 83-131; settings: 35° C.
Procedure, shortened: as §1

[18] = system: Escherichia coli VGH 84-19; settings: 35° C.
Procedure, shortened: as §1

[19] = system: Klebsiella pneumoniae IO 83-5; settings: 35° C.
Procedure, shortened: as §1

[20] = system: Pseudomonas aeruginosa VGH 84-3; settings: 35° C.
Procedure, shortened: as §1

[21] = system: Escherichia coli CMC 84-50; settings: 35° C.
Procedure, shortened: as §1

[22] = system: Serratia marcescens MOR 84-41; settings: 35° C.
Procedure, shortened: as §1

[23] = system: Serratia marcescens CMC 83-74; settings: 35° C.
Procedure, shortened: as §1

[24] = system: Morganella morganii CMC 84-38; settings: 35° C.
Procedure, shortened: as §1

[25] = system: Staphylococcus aureus K 82-26; settings: 35° C.
Procedure, shortened: as §1

[26] = system: Pseudomonas aeruginosa CMC 83-20; settings: 35° C.
Procedure, shortened: as §1

[27] = system: Klebsiella pneumoniae CMC 84-31; settings: 35° C.
Procedure, shortened: as §1

[28] = system: Pseudomonas aeruginosa K 84-16; settings: 35° C.
Procedure, shortened: as §1

[29] = system: Escherichia coli LL 311; settings: Escherichia coli, LL311, 18 h, 35° C., read-out: MIC
Procedure, shortened: as §1

[30] = system: Streptococcus faecalis VGH 84-65; settings: 18 hours, 35° C.
Procedure, shortened: as §1

[31] = system: Streptococcus faecalis UCI 85-19; settings: 18 hours, 35° C.
Procedure, shortened: as §1

[32] = system: Staphylococcus aureus VGH 84-45; settings: 18 hours, 35° C.
Procedure, shortened: as §1

[33] = system: Proteus rettgeri CMC 84-41; settings: Providencia rettgeri, CMC8441, 18 h, 35° C., read-out: MIC
Procedure, shortened: as §1

[34] = system: Serratia marcescens K 84-18; settings: 18 hours, 35° C.
Procedure, shortened: as §1

[35] = system: Pseudomonas aeruginosa VGH 84-4; settings: 18 hours, 35° C.
Procedure, shortened: as §1

[36] = system: Morganella morganii CMC 84-37; settings: 18 hours, 35° C.
Procedure, shortened: as §1

[37] = system: Staphylococcus aureus Smith; settings: 18 hours, 35° C.
Procedure, shortened: as §1

[38] = system: Escherichia coli CMC 84-11; settings: Escherichia coli, CMC8411, 18 h, 35° C., read-out: MIC
Procedure, shortened: as §1

[39] = system: Pseudomonas aeruginosa LL-1244; settings: 18 hours, 35° C.
Procedure, shortened: as §1

[40] = system: Serratia marcescens VGH 84-30; settings: Serratia marcescens, VGH8430, 18 h, 35° C., read-out: MIC
Procedure, shortened: as §1

## O=C(O)c1cn(C2CC2)c2cc(N3CCNC(c4cc[nH]c4)C3)c(F)cc2c1=O (stereo not shown) [Example 119]
[1]; Escherichia coli, ATCC25922, 18 h, read-out: MIC
  MIC: 0.008 µg/mL (≈ 0.0202 µM)
[2]; Enterococcus faecalis, UCI8530, 18 h, read-out: MIC
  MIC: 1 µg/mL (≈ 2.52 µM)
[3]; Enterobacter cloacae, K8410, 18 h, read-out: MIC
  MIC: 0.3 µg/mL (≈ 0.757 µM)
[4]; Citrobacter, DIV.K8224, 18 h, read-out: MIC
  MIC: 0.03 µg/mL (≈ 0.0757 µM)
[5]; Enterobacter cloacae, MOR8430, 18 h, read-out: MIC
  MIC: 0.5 µg/mL (≈ 1.26 µM)
[6]; Enterococcus faecalis, CMC83120, 18 h, read-out: MIC
  MIC: 0.2 µg/mL (≈ 0.505 µM)
[7]
  MIC: 0.12 µg/mL (≈ 0.303 µM)
[8]; Morganella morganii, MOR8445, 18 h, read-out: MIC
  MIC: 0.03 µg/mL (≈ 0.0757 µM)
[9]; Escherichia coli, MOR8420, 18 h, read-out: MIC
  MIC: 0.015 µg/mL (≈ 0.0378 µM)
[10]; Klebsiella pneumoniae, MOR8424, 18 h, read-out: MIC
  MIC: 0.12 µg/mL (≈ 0.303 µM)
[11]; Enterococcus faecalis, VGH8469, 18 h, read-out: MIC
  MIC: 0.5 µg/mL (≈ 1.26 µM)
[12]; Morganella morganii, VHG8412, 18 h, read-out: MIC
  MIC: 0.5 µg/mL (≈ 1.26 µM)
[13]; Staphylococcus aureus, VGH8447, 18 h, read-out: MIC
  MIC: 0.12 µg/mL (≈ 0.303 µM)
[14]; Providencia rettgeri, IO8321, 18 h, read-out: MIC
  MIC: 0.12 µg/mL (≈ 0.303 µM)
[15]; Enterobacter cloacae, VGH8439, 18 h, read-out: MIC
  MIC: 0.06 µg/mL (≈ 0.151 µM)
[16]; Providencia, CMC833, 18 h, read-out: MIC
  MIC: 4 µg/mL (≈ 10.1 µM)
[17]; Staphylococcus aureus, CMC83131, 18 h, read-out: MIC
  MIC: 0.25 µg/mL (≈ 0.631 µM)
[18]; Escherichia coli, VGH8419, 18 h, read-out: MIC
  MIC: 0.015 µg/mL (≈ 0.0378 µM)
[19]; Klebsiella pneumoniae, IO835, 18 h, read-out: MIC
  MIC: 0.12 µg/mL (≈ 0.303 µM)
[20]; Pseudomonas aeruginosa, VGH843, 18 h, read-out: MIC
  MIC: 8 µg/mL (≈ 20.2 µM)
[21]; Escherichia coli, CMC8450, 18 h, read-out: MIC
  MIC: 0.03 µg/mL (≈ 0.0757 µM)
[22]; Serratia marcescens, MOR8441, 18 h, read-out: MIC
  MIC: 0.5 µg/mL (≈ 1.26 µM)
[23]; Serratia marcescens, CMC8374, 18 h, read-out: MIC
  MIC: 16 µg/mL (≈ 40.4 µM)
[24]; Morganella morganii, CMC8438, 18 h, read-out: MIC
  MIC: 0.06 µg/mL (≈ 0.151 µM)
[25]; Staphylococcus aureus, K8226, 18 h, read-out: MIC
  MIC: 0.5 µg/mL (≈ 1.26 µM)
[26]; Pseudomonas aeruginosa, CMC8320, 18 h, read-out: MIC
  MIC: 2 µg/mL (≈ 5.05 µM)
[27]; Klebsiella pneumoniae, CMC8431, 18 h, read-out: MIC
  MIC: 0.06 µg/mL (≈ 0.151 µM)
[28]; Pseudomonas aeruginosa, K8416, 18 h, read-out: MIC
  MIC: 4 µg/mL (≈ 10.1 µM)

## O=C(O)c1cn(C2CC2)c2cc(N3CCNC(C4CC4)C3)c(F)cc2c1=O (stereo not shown) [Example 124, 1-Cyclopropyl-7-(3-cvclopropyl-1-piperazinyl)-6-fluoro-1,4-dihydro-4-oxo-3-quinolinecarboxvlic acid,]
[29]
  MIC: 0.03 µg/mL (≈ 0.0808 µM)
[1]; 18 hours
  MIC: < 0.015 µg/mL and 0.008 µg/mL
[2]; 18 hours
  MIC: 2 µg/mL (≈ 5.38 µM)
[3]; 18 hours
  MIC: 0.015 µg/mL (≈ 0.0404 µM)
[4]; 18 hours
  MIC: 0.03 µg/mL (≈ 0.0808 µM)
[5]; 18 hours
  MIC: 0.5 µg/mL (≈ 1.35 µM)
[6]; 18 hours
  MIC: 1 µg/mL (≈ 2.69 µM)
[8]; 18 hours
  MIC: 0.015 µg/mL (≈ 0.0404 µM)
[30]
  MIC: 1 µg/mL (≈ 2.69 µM)
[9]; 18 hours
  MIC: 0.015 µg/mL (≈ 0.0404 µM)
[10]; 18 hours
  MIC: 0.06 µg/mL (≈ 0.162 µM)
[11]; 18 hours
  MIC: 1 µg/mL (≈ 2.69 µM)
[31]
  MIC: 2 µg/mL (≈ 5.38 µM)
[12]; 18 hours
  MIC: 0.12 µg/mL (≈ 0.323 µM)
[13]; 18 hours
  MIC: 0.25 µg/mL (≈ 0.673 µM)
[32]
  MIC: 0.06 µg/mL (≈ 0.162 µM)
[14]; 18 hours
  MIC: 0.12 µg/mL (≈ 0.323 µM)
[15]; 18 hours
  MIC: 0.03 µg/mL (≈ 0.0808 µM)
[16]; 18 hours
  MIC: 4 µg/mL (≈ 10.8 µM)
[17]; 18 hours
  MIC: 0.5 µg/mL (≈ 1.35 µM)
[18]; 18 hours
  MIC: 0.015 µg/mL (≈ 0.0404 µM)
[33]
  MIC: 0.06 µg/mL (≈ 0.162 µM)
[19]; 18 hours
  MIC: 0.06 µg/mL (≈ 0.162 µM)
[34]
  MIC: 0.12 µg/mL (≈ 0.323 µM)
[20]; 18 hours
  MIC: 8 µg/mL (≈ 21.5 µM)
[35]
  MIC: 2 µg/mL (≈ 5.38 µM)
[36]
  MIC: 0.06 µg/mL (≈ 0.162 µM)
[21]; 18 hours
  MIC: 0.03 µg/mL (≈ 0.0808 µM)
[22]; 18 hours
  MIC: 0.12 µg/mL (≈ 0.323 µM)
[23]; 18 hours
  MIC: 8 µg/mL (≈ 21.5 µM)
[37]
  MIC: 0.06 µg/mL (≈ 0.162 µM)
[24]; 18 hours
  MIC: 0.03 µg/mL (≈ 0.0808 µM)
[25]; 18 hours
  MIC: 1 µg/mL (≈ 2.69 µM)
[26]; 18 hours
  MIC: 4 µg/mL (≈ 10.8 µM)
[27]; 18 hours
  MIC: 0.03 µg/mL (≈ 0.0808 µM)
[28]; 18 hours
  MIC: 4 µg/mL (≈ 10.8 µM)
[38]
  MIC: 0.03 µg/mL (≈ 0.0808 µM)
[39]
  MIC: 4 µg/mL (≈ 10.8 µM)
[40]
  MIC: 2 µg/mL (≈ 5.38 µM)
